Source: patent publication US7354912B2, “Unique compositions of zwitterionic phospholipids and bisphosphonates and use of the compositions as bisphosphate delivery systems with reduced GI toxicity” (Board of Reagents, University of Texas System, priority 2000, dated 2008)
Marks after values point to notes of the source that are not given here.

What was measured:
gastric mucosa [1] = assay: acute bisphosphonate/indomethacin gastric injury model of Blank et al. (gastric lesion score, gastric bleeding); assay type: in vivo, rat; conditions: for Gastric Lesion Score (lesioned area, mm^2) / order of gastrotoxicity (FIG. 4): rats; for Gastric Lesion Score (lesioned area, mm^2): Indo 40 mg/kg, pamidronate 300 mg/kg, PC-pamidronate 1:1 weight ratio, n = 4-5 rats/group; for order of gastrotoxicity (FIG. 4): comparison of three bisphosphonates
Description: (§1) The experiments investigated the effects of different bisphosphonates on the surface hydrophobicity and phospholipid concentration of the antral mucosa, using the animal model of Blank et. al. (Blank M A, Ems B L, Gibson G W, Myers W R, Berman S K, Phipps R J, Smith P N, Dig Dis Sci, 42, 281-288 (1997)), and compared the effects of these surface changes to the gastric toxicity of these drugs.
Looking at FIG. 2, an antrum lesion score is plotted against time.
The model and the ability for phospholipids to inhibit bisphosphonate GI toxicity was investigated in pilot preclinical studies using the rodent model of Blank et. al. (Blank M A, Ems B L, Gibson G W, Myers W R, Berman S K, Phipps R J, Smith P N, Dig Dis Sci, 42, 281-288 (1997)), where the bisphosphonate test drug was administered simultaneously with indomethacin.
60 mg of Phospholipon 90G (90-93% pure PC) was dissolved in chloroform in a tube. […] The organic solvent was removed under nitrogen and resulting PC material was left under vacuum overnight to form a PC film in the tube. […] The solution was then added to the dried PC film in the tube. The mixture was sonicated in a both type sonicator at room temperature for 5 min., prior to administration to fasted rats.
20 mg of dipalmitoyl PC (DPPC) and Phospholipon 90 G were dissolved in chloroform in separate tubes, and dried as described in Example 1.
60 mg and 240 mg of Phospholipon 90G were dissolved in chloroform and dried as described in Example 1 in separate tubes.

gastric mucosa [2] = conditions: rats, intragastric high doses, with indomethacin; cited from earlier work
gastric mucosa [3] = assay: surface hydrophobicity and phospholipid (PC) concentration of the antral/gastric mucosa
Description: as §1

[4] = tested on: aspirin-induced gastric erosions; conditions: 10 mg and 40 mg doses; cited from earlier work
[5] = tested on: experimentally induced gastric ulcers; conditions: rats; cited from earlier work
[6] = healthy subjects, up to 2 weeks, 40 mg or 10 mg; cited from earlier work
[7] = tested on: mucosae of the gastric body and antrum; conditions: increasing doses over a 4 week period in rats; macroscopic and histological; cited from earlier work
gastric mucosa [8] = assay: histological studies of gastric mucosa; conditions: rat, in vivo

SMILES: COc1ccc2c(c1)c(CC(=O)O)c(C)n2C(=O)c1ccc(Cl)cc1 [Indomethacin]
- Gastric Lesion Score (lesioned area, mm^2) (gastric mucosa [1]): 0 ± 0 mm^2

SMILES: NCCC(O)(P(=O)(O)O)P(=O)(O)O [Pamidronate, 3-amino-1-hydroxypropylidene-1,1-bisphosphonic acid]
- irritation of the gastric mucosa (comparison of bisphosphonates) (gastric mucosa [2]): more irritating
- gastric lesions (antrum lesion score, FIG. 2) (gastric mucosa [1]; rat stomach, over a 4 hr period, in combination with indomethacin): induced lesions in both the antrum and body of the rat stomach
- order of gastrotoxicity (FIG. 4) (gastric mucosa [1]): pamidronate>>alendronate>risedronate
- Gastric Lesion Score (lesioned area, mm^2) (gastric mucosa [1]): 62 ± 11* mm^2

SMILES: NCCCC(O)(P(=O)(O)O)P(=O)(O)O [alendronate, 4-amino-1-hydroxybutylidene-1,1-bisphosphonic acid]
- order of ability to attenuate the stomach's hydrophobic phospholipid barrier property (FIG. 5) (gastric mucosa [3]; rat, in vivo): pamidronate>>alendronate>risedronate
- rate of healing of aspirin-induced gastric erosions [4]: significantly retarded
- healing of experimentally induced gastric ulcers [5]: significantly delayed the healing
- volunteers who developed one or more gastric ulcers [6]: 10-20%
- volunteers with observable gastric erosions [6]: 40-60%
- injurious effect on mucosae of the gastric body and antrum [7]: dose-dependent injurious effect

SMILES: CC(O)(P(=O)(O)O)P(=O)(O)O [etidronate, 1-hydroxyethylidene-1,1-bisphosphonic acid]
- injurious effect on mucosae of the gastric body and antrum [7]: dose-dependent injurious effect

SMILES: O=P(O)(O)C(O)(Cc1cccnc1)P(=O)(O)O [risedronate, I-hydroxy-2-(3-pyridyl) ethylidene-1,(3-pyridyl) ethylidene-1,1-bisphosphonic acid]
- surface injury to the gastric mucosa (histology) (gastric mucosa [8]): induced some surface injury
- order of gastrotoxicity (FIG. 4) (gastric mucosa [1]): pamidronate>>alendronate>risedronate
- order of ability to attenuate the stomach's hydrophobic phospholipid barrier property (FIG. 5) (gastric mucosa [3]; same order as gastrotoxicity maintained): pamidronate>>alendronate>risedronate
- injurious effect on mucosae of the gastric body and antrum [7]: dose-dependent injurious effect
